Data published in patent US20240228458A1, “PYRIMIDINE DERIVATIVE HAVING PROTEIN KINASE INHIBITORY ACTIVITY, AND THERAPEUTIC PHARMACEUTICAL COMPOSITION COMPRISING SAME” (THERAPEX CO., LTD., priority 2021, published 2024).

Assays:
Assay type in all cases: cell-based
[1] = tested on: Ba/F3 cells expressing EGFR-wt; assay: Growth inhibition (GI50) of Ba/F3 cells expressing EGFR-wt, Celltiter glo
Method in brief: (§1)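 Viability read by CellTiter-Glo after 72 h compound exposure (37 °C, 5% CO2) of variant-expressing Ba/F3 cells plated at 100,000 cells/ml. Dosing 4 h post-seeding; 10-pt 4-fold series from 2 mM stock; 0.5% DMSO. GI50 = molar concentration (μM) giving half-maximal growth inhibition.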

[2] = tested on: Ba/F3 cells expressing del19/T790M/C797S (EGFR-DTC); assay: Growth inhibition (GI50) of Ba/F3 cells expressing del19/T790M/C797S (EGFR-DTC), Celltiter glo
Method in brief: as §1

[3] = tested on: Ba/F3 cells expressing L858R/T790M/C797S (EGFR-LTC); assay: Growth inhibition (GI50) of Ba/F3 cells expressing L858R/T790M/C797S (EGFR-LTC), Celltiter glo
Method in brief: as §1

[4] = tested on: Ba/F3 cells expressing del19/T790M (EGFR-DT); assay: Growth inhibition (GI50) of Ba/F3 cells expressing del19/T790M (EGFR-DT), Celltiter glo
Method in brief: as §1

[5] = tested on: Ba/F3 cells expressing L858R/T790M (EGFR-LT); assay: Growth inhibition (GI50) of Ba/F3 cells expressing L858R/T790M (EGFR-LT), Celltiter glo
Method in brief: as §1

parental Ba/F3 cell line = assay: Growth inhibition (GI50) of the parental Ba/F3 cell line (not introduced with EGFR variants), Celltiter glo; settings: parental Ba/F3 cells
Method in brief: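 Parental Ba/F3 cells (100,000 cells/ml) were treated with 10-point, 4-fold compound dilutions (0.5% DMSO; top stock 2 mM) for 72 h at 37 °C, 5% CO2. Viability was read by CellTiter-Glo; GI50 is the concentration (μM) giving 50% growth inhibition.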

SMILES	GI50 ([1]; Mus musculus, BaF3, 72 h)	GI50 ([2]; Mus musculus, BaF3, 72 h)	GI50 ([3]; Mus musculus, BaF3, 72 h)	GI50 ([4]; Mus musculus, BaF3, 72 h)	GI50 ([5]; Mus musculus, BaF3, 72 h)	GI50 (parental Ba/F3 cell line; Mus musculus, BaF3, 72 h)	GI50 ([1]; 72 h)	GI50 ([2]; 72 h)	GI50 ([3]; 72 h)	GI50 ([4]; 72 h)	GI50 ([5]; 72 h)	GI50 (parental Ba/F3 cell line; 72 h)
COc1cc(N2CCC(N3CCN(C)CC3)CC2)ccc1Nc1ncc(Cl)c(Nc2ccc3c(c2)NCC3)n1 [Example 279]	2000 to 10000 nM	2000 to 10000 nM	2000 to 10000 nM	100 to 500 nM	500 to 2000 nM	2000 to 10000 nM						
COc1cc(N2CCC(N3CCCC(N(C)C)C3)CC2)c(Br)cc1Nc1ncc(Cl)c(Nc2cc3c(cc2NS(C)(=O)=O)CCO3)n1 (stereo not drawn) [Example 280, N-(6-((2-((5-bromo-4-(3-(dimethylamino)-[1,4′-bipiperidin]-1′-yl)-2-methoxyphenyl)amino)-5-chloropyrimidin-4-yl)amino)-2,3-dihydrobenzofuran-5-yl)methanesulfonamide]	25 to 100 nM	100 to 500 nM	1 to 25 nM	1 to 25 nM	1 to 25 nM	2000 to 10000 nM						
COc1cc(N2CCC(N3CCCC(N(C)C)C3)CC2)c(Br)cc1Nc1ncc(Br)c(Nc2cc3c(cc2NS(C)(=O)=O)CCO3)n1 (stereo not drawn) [Example 281, N-(6-((5-bromo-2-((5-bromo-4-(3-(dimethylamino)-[1,4′-bipiperidin]-1′-yl)-2-methoxyphenyl)amino)pyrimidin-4-yl)amino)-2,3-dihydrobenzofuran-5-yl)methanesulfonamide]	100 to 500 nM	25 to 100 nM	1 to 25 nM	1 to 25 nM	1 to 25 nM	100 to 500 nM						
COc1cc(N2CCC(N3CCCN(C)CC3)CC2)c(Br)cc1Nc1ncc(Cl)c(Nc2cc3c(cc2NS(C)(=O)=O)CCO3)n1 [Example 282, N-(6-((2-((5-bromo-2-methoxy-4-(4-(4-methyl-1,4-diazepan-1-yl)piperidin-1-yl)phenyl)amino)-5-chloropyrimidin-4-yl)amino)-2,3-dihydrobenzofuran-5-yl)methanesulfonamide]	100 to 500 nM	100 to 500 nM	25 to 100 nM	1 to 25 nM	1 to 25 nM	2000 to 10000 nM						
COc1cc(N2CCC(N3CCC(N(C)C)C3)CC2)c(Br)cc1Nc1ncc(Cl)c(Nc2cc3c(cc2NS(C)(=O)=O)CCO3)n1 (stereo not drawn) [Example 283, N-(6-((2-((5-bromo-4-(4-(3-(dimethylamino)pyrrolidin-1-yl)piperidin-1-yl)-2-methoxyphenyl)amino)-5-chloropyrimidin-4-yl)amino)-2,3-dihydrobenzofuran-5-yl)methanesulfonamide]	100 to 500 nM	100 to 500 nM	25 to 100 nM	1 to 25 nM	1 to 25 nM	2000 to 10000 nM						
COc1cc(N2CCC(N3CCN(C)CC3)CC2)c(C)cc1Nc1ncc(Br)c(Nc2ccc3nccnc3c2P(C)(C)=O)n1 [TQB-3804]							500 to 2000 nM	25 to 100 nM	25 to 100 nM	100 to 500 nM	100 to 500 nM	500 to 2000 nM
